This is an account of results in publication PMC8151276, “An Integrated Approach toward NanoBRET Tracers for Analysis of GPCR Ligand Engagement” (Molecules, 2021).

Format in all cases: binding
In one test the target is T1, P2RY11 (Homo sapiens, UniProt Q96G91).
T1 construct: purchased Promega (in-house HiBiT-GPCR construct library, NanoBRET)
T1 sequence (Q96G91 1-374): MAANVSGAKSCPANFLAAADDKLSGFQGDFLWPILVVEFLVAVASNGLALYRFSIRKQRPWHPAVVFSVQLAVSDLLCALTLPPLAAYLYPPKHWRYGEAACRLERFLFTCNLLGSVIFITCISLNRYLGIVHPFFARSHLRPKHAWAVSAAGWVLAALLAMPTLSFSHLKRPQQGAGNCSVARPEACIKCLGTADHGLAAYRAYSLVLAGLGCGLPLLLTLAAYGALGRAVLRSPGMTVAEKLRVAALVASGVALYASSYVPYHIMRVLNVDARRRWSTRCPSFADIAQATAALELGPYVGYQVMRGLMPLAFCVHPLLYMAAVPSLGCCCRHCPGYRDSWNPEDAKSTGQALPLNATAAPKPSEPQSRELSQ
Nature of the test: NanoBRET screen HiBiT-P2RY11 in HEK293. As for the experimental part:
(§1) Each tracer candidate was screened across the entire library of HiBiT-GPCR constructs using NanoBRET as the detection modality. As depicted in Figure 4A, the specificity of interactions was evaluated through decrease in BRET due to competitive displacement of a bound tracer by excess parental compound. Each tracer was analyzed for binding to each HiBiT-GPCR fusion in the absence and in the presence of competing parental compound. Briefly, HEK293 cells were transfected with HiBiT-GPCR constructs diluted into promoterless DNA to reduce expression and maximize translocation to the cell surface. Each tracer candidate was then screened at concentrations of 1 μM and 0.1 μM across cells expressing these fusions. Cells were treated for 1.5 h with tracer either alone or in the presence of 20 μM competing parental compound (i.e., control). BRET was measured upon addition of purified LgBiT and subsequent complementation with HiBiT genetically fused to a GPCR. The specificity of interactions was assessed through a decrease in BRET signal due to competitive displacement of the bound tracer. To further gauge the robustness of these interactions, the fold response over the control (i.e., BRETtracer/BRETcontrol) was calculated. We chose a 1.5-fold response, which translates to ≥7-fold signal over noise as the minimal threshold required to score an interaction as positive. […]. Below we highlight the screening results obtained for our exemplary fluorescent tracers based on Clozapine, Amitriptyline and AZD1283.
(§2) HiBiT-GPCR DNA constructs were diluted in 10 mM Tris pH 8 to a final concentration of 0.01 μg/μL, arrayed in 96-well plates and stored at −20 °C. For transfection, HEK293 cells were suspended in Opti-MEM (without phenol red) supplemented with 2% fetal bovine serum (Seradigm) and 100 units/mL penicillin–streptomycin (Gibco) at a final concentration of 220,000 cells/mL and dispensed into white 96-well plates at 90 μL/well. Subsequent transfections and screens were carried using an Agilent Bravo Automated Liquid Handling Platform. First, the 96-well HiBiT DNA arrays were diluted 25-fold in Opti-MEM (without serum or phenol red) to a final concentration of 0.0004 μg/μL and 20 μL of the diluted DNAs were transferred into new 96-well plates. Next, promoterless carrier DNA (1 μg/μL) was diluted 25-fold (0.04 μg/μL) and then dispensed into the diluted arrays at 20 μL/well. Following brief mixing, Viafect transfection reagent (Promega) diluted 16-fold into Opti-MEM was dispensed into the plates at 40 μL/well. After mixing by pipetting, plates were incubated for 10 min on the pipetting station deck. The DNA-transfection reagent complexes were then added to plates containing cells. To facilitate the screen, 10 μL of DNA-transfection reagent complexes were added in duplicates to the top 4 and bottom 4 rows, resulting in two identical 48-well arrays per plate. Plates with transfected cells were incubated for 18–20 h at 37 °C/5% CO2. A screen of each tracer across the entire library using two different concentrations requires duplicate plates of transfected cells. Depending on the number of tracers being screened, transfections can be scaled up using the same ratios. The next day, for each tracer, four 20× screening solutions in tracer dilution buffer (Promega) were prepared: two duplicates at final concentration of 20 μM and two duplicates at a final concentration of 2 μM. A competing unmodified compound was added to one of each duplicate at a final concentration of 400 μM. The four resulting solutions were diluted 4-fold in Opti-MEM without serum or phenol red to generate 5× solutions (5 µM and 0.5 µM tracer +/− 100 μM competing compound). To screen the library, a BioTek MultiFlo FX liquid dispenser was used to dispense 22.5 µL of tracer solution to the top 4 rows and 22.5 µL tracer + competing compound solution to the 4 bottom rows. Plates were briefly mixed on an orbital shaker and incubated for 1.5 h at room temperature. […]

A further test concerns the target T2, NPBWR1 (Homo sapiens, UniProt P48145).
T2 construct: purchased Promega (in-house HiBiT-GPCR construct library, NanoBRET)
T2 sequence (P48145 1-328): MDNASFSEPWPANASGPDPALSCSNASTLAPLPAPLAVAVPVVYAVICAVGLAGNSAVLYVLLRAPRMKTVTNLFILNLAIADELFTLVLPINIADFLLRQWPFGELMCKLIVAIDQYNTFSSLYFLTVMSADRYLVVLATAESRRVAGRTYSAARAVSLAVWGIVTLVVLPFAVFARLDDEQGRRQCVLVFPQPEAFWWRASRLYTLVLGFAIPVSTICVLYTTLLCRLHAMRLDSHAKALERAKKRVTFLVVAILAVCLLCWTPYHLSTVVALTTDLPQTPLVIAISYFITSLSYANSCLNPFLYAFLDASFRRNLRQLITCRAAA
Nature of the test: NanoBRET screen HiBiT-NPBWR1 in HEK293. The procedure:
as §1, §2

The target of a further test is T3, GRM1 (Homo sapiens, UniProt Q13255).
T3 construct: purchased Promega (in-house HiBiT-GPCR construct library, NanoBRET)
Description: NanoBRET screen HiBiT-GRM1 in HEK293. As for the experimental part:
as §1, §2

The next test deals with T4, C3AR1 (Homo sapiens, UniProt Q16581).
T4 construct: purchased Promega (in-house HiBiT-GPCR construct library, NanoBRET)
T4 sequence (Q16581 1-482): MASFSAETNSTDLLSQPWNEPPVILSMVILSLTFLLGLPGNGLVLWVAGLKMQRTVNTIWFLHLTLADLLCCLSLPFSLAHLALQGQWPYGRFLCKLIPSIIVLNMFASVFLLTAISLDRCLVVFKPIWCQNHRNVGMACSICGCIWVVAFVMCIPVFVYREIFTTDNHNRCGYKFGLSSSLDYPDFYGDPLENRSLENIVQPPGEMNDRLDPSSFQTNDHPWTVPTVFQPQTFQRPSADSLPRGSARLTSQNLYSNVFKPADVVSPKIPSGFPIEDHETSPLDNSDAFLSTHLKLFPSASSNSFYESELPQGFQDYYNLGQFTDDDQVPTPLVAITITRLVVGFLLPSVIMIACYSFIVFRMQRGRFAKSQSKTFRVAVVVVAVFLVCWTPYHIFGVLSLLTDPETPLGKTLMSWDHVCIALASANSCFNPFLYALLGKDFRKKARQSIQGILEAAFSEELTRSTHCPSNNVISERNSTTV
Nature of the test: NanoBRET screen HiBiT-C3AR1 in HEK293. The procedure:
as §1, §2

In another test the target is T5, CCR8 (Homo sapiens, UniProt P51685).
T5 construct: purchased Promega (in-house HiBiT-GPCR construct library, NanoBRET)
Description: NanoBRET screen HiBiT-CCR8 in HEK293. The procedure:
as §1, §2

T5 sequence (P51685 whole entry): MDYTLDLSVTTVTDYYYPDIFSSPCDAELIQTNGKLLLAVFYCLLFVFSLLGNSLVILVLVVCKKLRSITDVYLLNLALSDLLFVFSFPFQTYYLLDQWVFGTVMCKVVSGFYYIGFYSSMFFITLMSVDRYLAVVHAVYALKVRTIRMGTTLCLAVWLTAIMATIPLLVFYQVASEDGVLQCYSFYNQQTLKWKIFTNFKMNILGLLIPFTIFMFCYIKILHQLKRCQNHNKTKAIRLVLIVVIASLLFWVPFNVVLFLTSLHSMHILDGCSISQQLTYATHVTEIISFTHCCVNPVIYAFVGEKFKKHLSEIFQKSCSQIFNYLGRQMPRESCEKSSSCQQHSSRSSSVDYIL
T3 sequence (Q13255 19-1194): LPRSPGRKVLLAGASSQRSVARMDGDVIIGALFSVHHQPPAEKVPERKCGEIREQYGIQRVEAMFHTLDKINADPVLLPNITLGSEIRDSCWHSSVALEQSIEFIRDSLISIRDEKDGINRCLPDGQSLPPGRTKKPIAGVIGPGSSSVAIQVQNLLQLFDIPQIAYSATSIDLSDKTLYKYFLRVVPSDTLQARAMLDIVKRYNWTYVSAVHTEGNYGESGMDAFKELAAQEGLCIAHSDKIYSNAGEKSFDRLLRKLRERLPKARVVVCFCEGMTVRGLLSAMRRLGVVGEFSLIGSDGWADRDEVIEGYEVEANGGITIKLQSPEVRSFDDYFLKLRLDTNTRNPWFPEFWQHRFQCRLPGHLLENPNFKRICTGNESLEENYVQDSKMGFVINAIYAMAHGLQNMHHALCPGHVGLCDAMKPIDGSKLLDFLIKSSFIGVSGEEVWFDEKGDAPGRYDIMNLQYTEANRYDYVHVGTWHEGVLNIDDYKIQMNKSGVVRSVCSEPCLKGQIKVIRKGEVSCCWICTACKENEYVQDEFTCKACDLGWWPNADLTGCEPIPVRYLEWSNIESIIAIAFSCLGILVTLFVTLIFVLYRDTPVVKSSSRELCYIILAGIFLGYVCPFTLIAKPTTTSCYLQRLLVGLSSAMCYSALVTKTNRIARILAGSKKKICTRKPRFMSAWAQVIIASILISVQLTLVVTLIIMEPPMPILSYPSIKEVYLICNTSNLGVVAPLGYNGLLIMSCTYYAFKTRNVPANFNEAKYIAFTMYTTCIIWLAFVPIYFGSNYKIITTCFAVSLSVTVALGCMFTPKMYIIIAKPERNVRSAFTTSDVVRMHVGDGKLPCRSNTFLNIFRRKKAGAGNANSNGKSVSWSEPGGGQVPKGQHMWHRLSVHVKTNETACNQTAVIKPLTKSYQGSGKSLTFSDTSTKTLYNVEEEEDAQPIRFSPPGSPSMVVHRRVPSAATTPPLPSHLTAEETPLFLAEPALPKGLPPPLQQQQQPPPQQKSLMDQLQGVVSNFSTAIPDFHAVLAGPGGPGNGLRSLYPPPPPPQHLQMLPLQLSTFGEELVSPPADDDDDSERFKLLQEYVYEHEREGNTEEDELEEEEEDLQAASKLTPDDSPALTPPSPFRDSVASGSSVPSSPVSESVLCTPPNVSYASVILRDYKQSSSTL

For the compound `CCOC(=O)c1cc(C#N)c(N2CCC(C(=O)NS(=O)(=O)Cc3ccccc3/C=C/C(=O)NCCNC(=O)CCc3ccc4n3[B-](F)(F)[N+]3=C(c5ccc[nH]5)C=CC3=C4)CC2)nc1C` [AZD1283-1-NB590], the “NanoBRET Fold Response” value came out at 1.09 at P2RY11 (P2RY11, 0.1μM); 1.04 on P2RY11 (P2RY11, 1μM); 1.02 on NPBWR1 (NPBWR1, 0.1μM); 0.98 on NPBWR1 (NPBWR1, 1μM); 1.28 at GRM1 (GRM1, 0.1μM); 0.71 at GRM1 (GRM1, 1μM). Moreover, the “NanoBRET Fold Response” value on C3AR1 (C3AR1, 0.1μM) worked out at 1.10; on C3AR1 (C3AR1, 1μM), 1.09; on CCR8 (CCR8, 0.1μM) it was 1.04; on CCR8 (CCR8, 1μM) it was 1.18.
For `COc1ccc2[nH]c(-c3ccc(CNC(=O)CCOCCOCCOCCOCCNC(=O)CCc4ccc5n4[B-](F)(F)[N+]4=C(c6ccc[nH]6)C=CC4=C5)cc3)c(CCNC(C)=O)c2n1` [AzomelatoninICO9-2-NB590], the “NanoBRET Fold Response” value was determined as 1.19 on P2RY11 (0.1μM tracer); 0.97 at P2RY11 (1μM tracer); 0.87 at NPBWR1 (0.1μM tracer); 1.04 at NPBWR1 (1μM tracer); 0.66 at GRM1 (0.1μM tracer); 1.33 on GRM1 (1μM tracer). Further, the “NanoBRET Fold Response” value on C3AR1 (0.1μM tracer) was found to be 0.78; at C3AR1 (1μM tracer), 0.87; at CCR8 (0.1μM tracer), 0.68; on CCR8 (1μM tracer), 1.10.
Take `CC(C)N(CC[C@H](c1ccccc1)c1cc(CCNC(=O)CCOCCOCCOCCOCCNC(=O)CCc2ccc3n2[B-](F)(F)[N+]2=C(c4ccc[nH]4)C=CC2=C3)ccc1O)C(C)C` [Tolterodine-2-NB590]: the “NanoBRET Fold Response” value came out at 1.31 at P2RY11 (P2RY11, tracer 0.1μM); 0.83 on P2RY11 (P2RY11, tracer 1μM); 1.26 on NPBWR1 (NPBWR1, tracer 0.1μM); 0.94 on NPBWR1 (NPBWR1, tracer 1μM); 0.94 on GRM1 (GRM1, tracer 0.1μM); 0.81 at GRM1 (GRM1, tracer 1μM). The “NanoBRET Fold Response” value is 1.04 at C3AR1 (C3AR1, tracer 0.1μM); 1.01 at C3AR1 (C3AR1, tracer 1μM); 0.82 at CCR8 (CCR8, tracer 0.1μM); 1.07 on CCR8 (CCR8, tracer 1μM).
In the case of `CN1CCN(C2=Nc3cc(Cl)ccc3N(CC(=O)NCCOCCOCCOCCOCCNC(=O)CCc3ccc4n3[B-](F)(F)[N+]3=C(c5ccc[nH]5)C=CC3=C4)c3ccccc32)CC1` [Clozapine-c-2-NB590], the “NanoBRET Fold Response” value at P2RY11 (P2RY11, 0.1μM tracer) is recorded as 0.93; at P2RY11 (P2RY11, 1μM tracer), 0.98; on NPBWR1 (NPBWR1, 0.1μM tracer), 0.97; on NPBWR1 (NPBWR1, 1μM tracer), 1.00; on GRM1 (GRM1, 0.1μM tracer) it was 0.99; on GRM1 (GRM1, 1μM tracer) it was 1.00. Moreover, the “NanoBRET Fold Response” value on C3AR1 (C3AR1, 0.1μM tracer) is given as 0.99; on C3AR1 (C3AR1, 1μM tracer), 1.00; at CCR8 (CCR8, 0.1μM tracer), 0.97; at CCR8 (CCR8, 1μM tracer), 0.96.
As for `N#CN=C(NCCCOc1cccc(CN2CCCCC2)c1)NCCNC(=O)CCOCCOCCOCCOCCNC(=O)CCc1ccc2n1[B-](F)(F)[N+]1=C(c3ccc[nH]3)C=CC1=C2` [Aminopotentidine-2-NB590], the “NanoBRET Fold Response” value stood at 1.14 at P2RY11 (P2RY11, tracer 0.1μM); 1.03 on P2RY11 (P2RY11, tracer 1μM); 0.94 at NPBWR1 (NPBWR1, tracer 0.1μM); 0.95 on NPBWR1 (NPBWR1, tracer 1μM); 0.59 on GRM1 (GRM1, tracer 0.1μM); 0.94 at GRM1 (GRM1, tracer 1μM). Besides, the “NanoBRET Fold Response” value on C3AR1 (C3AR1, tracer 0.1μM) turned out to be 0.99; on C3AR1 (C3AR1, tracer 1μM), 1.04; at CCR8 (CCR8, tracer 0.1μM) it was 0.99; on CCR8 (CCR8, tracer 1μM) it was 0.89.
As to `COc1ccc2c(n1)c(CCNC(C)=O)cn2CCNC(=O)CCc1ccc2n1[B-](F)(F)[N+]1=C(c3ccc[nH]3)C=CC1=C2` [Azamelatonin-1-NB590], the “NanoBRET Fold Response” value on P2RY11 (0.1μM tracer) is on record as 0.89; on P2RY11 (1μM tracer), 0.89; on NPBWR1 (0.1μM tracer), 0.88; at NPBWR1 (1μM tracer), 0.84; on GRM1 (0.1μM tracer) it was 1.27; on GRM1 (1μM tracer) it was 0.47. For the same compound, the “NanoBRET Fold Response” value at C3AR1 (0.1μM tracer) stood at 0.88; at C3AR1 (1μM tracer) it was 0.98; on CCR8 (0.1μM tracer) it was 1.13; at CCR8 (1μM tracer), 1.09.
As for `CC(C)N(CC[C@H](c1ccccc1)c1cc(CCNC(=O)c2ccc(CNC(=O)CCc3ccc4n3[B-](F)(F)[N+]3=C(c5ccc[nH]5)C=CC3=C4)cc2)ccc1O)C(C)C` [Tolterodine-BZ-NB590], the “NanoBRET Fold Response” value on P2RY11 (P2RY11, tracer 0.1μM) came out at 1.07; on P2RY11 (P2RY11, tracer 1μM), 0.96; at NPBWR1 (NPBWR1, tracer 0.1μM), 1.00; at NPBWR1 (NPBWR1, tracer 1μM), 1.01; at GRM1 (GRM1, tracer 0.1μM) it was 0.88; on GRM1 (GRM1, tracer 1μM), 0.19. Besides, the “NanoBRET Fold Response” value is given as 1.00 at C3AR1 (C3AR1, tracer 0.1μM); 0.99 on C3AR1 (C3AR1, tracer 1μM); 0.92 at CCR8 (CCR8, tracer 0.1μM); 1.00 on CCR8 (CCR8, tracer 1μM).
